How the values were obtained:
[1] = target: T1, ER-α in MCF-7 cells (Homo sapiens, UniProt P03372); assay: Breast Cancer Cell ER-α In Cell Western Assay (SP1); assay type: cell-based; conditions: 4 or 24 hr post compound addition; for Emax: MCF7, SP1 antibody, read-out: ER-α In Cell Western Assay (SP1) Max Response; for DC50: SP1 antibody, read-out: ER-α In Cell Western Assay (SP1) IC50
T1 construct: endogenous in cells; host or cells: MCF-7
T1 sequence (P03372 1-595): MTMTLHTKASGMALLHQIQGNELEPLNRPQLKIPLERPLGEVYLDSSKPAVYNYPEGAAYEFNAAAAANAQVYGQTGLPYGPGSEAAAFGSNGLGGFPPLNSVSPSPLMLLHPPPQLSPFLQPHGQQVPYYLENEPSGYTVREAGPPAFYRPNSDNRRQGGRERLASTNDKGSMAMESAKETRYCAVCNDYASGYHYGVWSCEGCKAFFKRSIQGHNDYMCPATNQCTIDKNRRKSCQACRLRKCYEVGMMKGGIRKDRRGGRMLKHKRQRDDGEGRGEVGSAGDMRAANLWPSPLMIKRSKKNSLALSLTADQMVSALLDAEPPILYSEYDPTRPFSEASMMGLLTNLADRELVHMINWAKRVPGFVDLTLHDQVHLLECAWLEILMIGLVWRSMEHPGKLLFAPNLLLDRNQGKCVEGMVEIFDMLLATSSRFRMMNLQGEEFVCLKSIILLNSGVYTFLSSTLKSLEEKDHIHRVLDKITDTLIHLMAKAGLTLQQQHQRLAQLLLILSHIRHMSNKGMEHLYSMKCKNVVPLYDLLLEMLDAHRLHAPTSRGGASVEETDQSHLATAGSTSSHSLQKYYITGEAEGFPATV
How it was run: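 MCF-7 cells in charcoal-stripped FBS medium, treated with 11-point semilog dilutions (0.3–0.000003 μM final) for 4 or 24 h. Fixed cells immunostained with SP1 antibody (800 nm) and DRAQ5 DNA (700 nm); ER/DNA ratio expressed as % of untreated cells.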

[2] = test system: MCF-7 cells; assay: Breast Cancer Cell Viability Assays (MCF-7, CellTiter-Glo); assay type: cell-based; conditions: 5 days' compound exposure; for IC50: Homo sapiens, MCF7, 120 h
How it was run: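 MCF-7 cells (320/well, RPMI with 10% FBS) exposed for 5 days to an eleven-point semilog series, 0.3–0.000003 μM final. Viability read by CellTiter-Glo luminescence, expressed as background-corrected percent of untreated cells.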

| Compound | Emax [1] [%] | DC50 [1] [nM] | MCF7 Viability Assay Max Response [2] | IC50 [2] [nM] |
| --- | --- | --- | --- | --- |
| N#Cc1ccc(/C(=C(\c2ccc(/C=C/C(=O)O)cc2)c2ccc3nccn3c2)C2CCC2)c(Cl)c1 [Example 226, (E)-3-(4-((E)-2-(2-Chloro-4-cyanophenyl)-2-cyclobutyl-1-(imidazo[1,2-a]pyridin-6-yl)vinyl)phenyl)acrylic acid] | ≥ 40 | ≤ 100 | ++ (++ = a single % value ≧ 40%) | ≤ 100 |
| N#Cc1cc(Cl)ccc1/C(=C(\c1ccc(/C=C/C(=O)O)cc1)c1ccc2nccn2c1)C1CCC1 [Example 227, (E)-3-(4-((E)-2-(4-Chloro-2-cyanophenyl)-2-cyclobutyl-1-(imidazo[1,2-a]pyridin-6-yl)vinyl)phenyl)acrylic acid] | ≥ 40 | ≤ 100 | ++ (++ = a single % value ≧ 40%) | ≤ 100 |
| COc1ccc(/C(=C(\c2ccc(/C=C/C(=O)O)cc2)c2ccc3nccn3c2)C2CCC2)c(Cl)c1 [Example 228, (E)-3-(4-((E)-2-(2-Chloro-4-methoxyphenyl)-2-cyclobutyl-1-(imidazo[1,2-a]pyridin-6-yl)vinyl)phenyl)acrylic acid] | ≥ 40 | ≤ 100 | ++ (++ = a single % value ≧ 40%) | ≤ 100 |
| COc1ccc(/C(=C(\c2ccc(/C=C/C(=O)O)cc2)c2ccc3nccn3c2)C2CCC2)c(C)c1 [Example 229, (E)-3-(4-((E)-2-Cyclobutyl-1-(imidazo[1,2-a]pyridin-6-yl)-2-(4-methoxy-2-methylphenyl)vinyl)phenyl)acrylic acid] | ≥ 40 | ≤ 100 | ++ (++ = a single % value ≧ 40%) | ≤ 100 |
| CCOc1ccc(/C(=C(\c2ccc(/C=C/C(=O)O)cc2)c2ccc3[nH]nc(F)c3c2)C2CCC2)c(Cl)c1 [Example 230, (E)-3-(4-((E)-2-(2-Chloro-4-ethoxyphenyl)-2-cyclobutyl-1-(3-fluoro-1H-indazol-5-yl)vinyl)phenyl)acrylic acid] | ≥ 40 | ≤ 100 | ++ (++ = a single % value ≧ 40%) | ≤ 100 |
| O=C(O)/C=C/c1ccc(/C(=C(\c2ccc(C(F)(F)F)cc2Cl)C2CCC2)c2ccc3nccn3c2)cc1 [Example 231, (E)-3-(4-((E)-2-(2-Chloro-4-(trifluoromethyl)phenyl)-2-cyclobutyl-1-(imidazo[1,2-a]pyridin-6-yl)vinyl)phenyl)acrylic acid] | ≥ 40 | ≤ 100 | ++ (++ = a single % value ≧ 40%) | ≤ 100 |
| COc1ccc(/C(=C(\c2ccc(/C=C/C(=O)O)cc2)c2ccc3scnc3c2)C2CCC2)c(Cl)c1 [Example 232, (E)-3-(4-((E)-1-(Benzo[d]thiazol-5-yl)-2-(2-chloro-4-methoxyphenyl)-2-cyclobutylvinyl)phenyl)acrylic acid] | ≥ 40 | ≤ 100 | ++ (++ = a single % value ≧ 40%) | ≤ 100 |
| O=C(O)/C=C/c1ccc(/C(=C(\c2ccc(CO)cc2Cl)C2CCC2)c2ccc3scnc3c2)cc1 [Example 233, (E)-3-(4-((E)-1-(Benzo[d]thiazol-5-yl)-2-(2-chloro-4-(hydroxymethyl)phenyl)-2-cyclobutylvinyl)phenyl)acrylic acid] | ≥ 40 | ≤ 100 | ++ (++ = a single % value ≧ 40%) | ≤ 100 |
| O=C(O)/C=C/c1ccc(/C(=C(\c2ccccc2Cl)C2CCC2)c2ccc3scnc3c2)cc1 [Example 234, (E)-3-(4-((E)-1-(Benzo[d]thiazol-5-yl)-2-(2-chlorophenyl)-2-cyclobutylvinyl)phenyl)acrylic acid] | ≥ 40 | ≤ 100 | ++ (++ = a single % value ≧ 40%) | ≤ 100 |
| O=C(O)/C=C/c1ccc(/C(=C(\c2cccc(F)c2Cl)C2CCC2)c2ccc3scnc3c2)cc1 [Example 235, (E)-3-(4-((E)-1-(Benzo[d]thiazol-5-yl)-2-(2-chloro-3-fluorophenyl)-2-cyclobutylvinyl)phenyl)acrylic acid] | ≥ 40 | ≤ 100 | ++ (++ = a single % value ≧ 40%) | ≤ 100 |
| O=C(O)/C=C/c1ccc(/C(=C(\c2cc(F)ccc2Cl)C2CCC2)c2ccc3scnc3c2)cc1 [Example 236, (E)-3-(4-((E)-1-(Benzo[d]thiazol-5-yl)-2-(2-chloro-5-fluorophenyl)-2-cyclobutylvinyl)phenyl)acrylic acid] | ≥ 40 | ≤ 100 | ++ (++ = a single % value ≧ 40%) | ≤ 100 |
| Cc1cc(CO)ccc1/C(=C(\c1ccc(/C=C/C(=O)O)cc1)c1ccc2scnc2c1)C1CCC1 [Example 237, (E)-3-(4-((E)-1-(Benzo[d]thiazol-5-yl)-2-cyclobutyl-2-(4-(hydroxymethyl)-2-methylphenyl)vinyl)phenyl)acrylic acid] | ≥ 40 | ≤ 100 | ++ (++ = a single % value ≧ 40%) | ≤ 100 |
| Cc1ccccc1/C(=C(\c1ccc(/C=C/C(=O)O)cc1)c1ccc2scnc2c1)C1CCC1 [Example 238, (E)-3-(4-((E)-1-(Benzo[d]thiazol-5-yl)-2-cyclobutyl-2-(o-tolyl)vinyl)phenyl)acrylic acid] | ≥ 40 | ≤ 100 | ++ (++ = a single % value ≧ 40%) | ≤ 100 |
| Cc1cc(F)ccc1/C(=C(\c1ccc(/C=C/C(=O)O)cc1)c1ccc2scnc2c1)C1CCC1 [Example 239, (E)-3-(4-((E)-1-(Benzo[d]thiazol-5-yl)-2-cyclobutyl-2-(4-fluoro-2-methylphenyl)vinyl)phenyl)acrylic acid] | ≥ 40 | ≤ 100 | ++ (++ = a single % value ≧ 40%) | ≤ 100 |
| COc1ccc(/C(=C(\c2ccc(/C=C/C(=O)O)cc2)c2ccc3scnc3c2)C2CCC2)c(C)c1 [Example 240, (E)-3-(4-((E)-1-(Benzo[d]thiazol-5-yl)-2-cyclobutyl-2-(4-methoxy-2-methylphenyl)vinyl)phenyl)acrylic acid] | ≥ 40 | ≤ 100 | ++ (++ = a single % value ≧ 40%) | ≤ 100 |
| O=C(O)/C=C/c1ccc(/C(=C(\c2ccc(OC(F)(F)F)cc2Cl)C2CCC2)c2ccc3scnc3c2)cc1 [Example 241, (E)-3-(4-((E)-1-(Benzo[d]thiazol-5-yl)-2-(2-chloro-4-(trifluoromethoxy)phenyl)-2-cyclobutylvinyl)phenyl)acrylic acid] | ≥ 40 | ≤ 100 | ++ (++ = a single % value ≧ 40%) | ≤ 100 |
| N#Cc1cc(C(F)(F)F)ccc1/C(=C(\c1ccc(/C=C/C(=O)O)cc1)c1ccc2scnc2c1)C1CCC1 [Example 242, (E)-3-(4-((E)-1-(Benzo[d]thiazol-5-yl)-2-(2-cyano-4-(trifluoromethyl)phenyl)-2-cyclobutylvinyl)phenyl)acrylic acid] | ≥ 40 | ≤ 100 | ++ (++ = a single % value ≧ 40%) | ≤ 100 |

— patent US9499538B2, “Estrogen receptor modulators and uses thereof” (Seragon Pharmaceuticals, Inc., priority 2012, dated 2016)
